Where two headings read alike, the source gives them in different places.
Assays:
[1] = test system: mammalian thioredoxin reductase (TXR); details: cited from earlier work
GR + GSH = target: T1, GR + GSH (Homo sapiens, UniProt P00390); test: NADPH oxidation, GR + GSH; assay type: biochemical; details: Disulfide 0.5 mM; n = 6
T1 sequence (P00390 44-522): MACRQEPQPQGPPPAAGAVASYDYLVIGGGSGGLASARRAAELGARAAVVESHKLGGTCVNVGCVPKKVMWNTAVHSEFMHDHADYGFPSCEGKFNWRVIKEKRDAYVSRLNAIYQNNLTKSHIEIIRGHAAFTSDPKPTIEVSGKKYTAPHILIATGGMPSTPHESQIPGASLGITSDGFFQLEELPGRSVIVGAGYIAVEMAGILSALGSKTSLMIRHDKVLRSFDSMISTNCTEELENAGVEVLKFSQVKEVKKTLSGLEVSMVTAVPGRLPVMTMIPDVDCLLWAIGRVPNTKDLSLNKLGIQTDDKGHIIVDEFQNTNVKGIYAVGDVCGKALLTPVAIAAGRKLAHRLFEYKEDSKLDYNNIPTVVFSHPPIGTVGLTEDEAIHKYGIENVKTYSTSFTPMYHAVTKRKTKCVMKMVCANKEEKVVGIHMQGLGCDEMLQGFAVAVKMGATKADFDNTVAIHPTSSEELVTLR
Experimental: (§1) The Formula (I) compound was utilized at a concentration of 0.5 mM.

[2] = target: T2, GR + GRX + GSH (coupled glutaredoxin/glutathione/glutathione reductase system) (Homo sapiens, UniProt P35754); test: NADPH oxidation, coupled GRX/GSH/GR system; assay type: biochemical; details: Disulfide 0.5 mM; n = 6
T2 sequence (P35754 1-106): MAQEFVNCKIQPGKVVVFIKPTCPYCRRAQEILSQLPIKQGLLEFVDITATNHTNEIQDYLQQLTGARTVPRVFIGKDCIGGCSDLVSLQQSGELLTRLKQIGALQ
Experimental: as §1

[3] = target: T3, glutathione reductase (GR) (Homo sapiens, UniProt P00390); test: NADPH oxidation, glutathione reductase (GR) alone; assay type: biochemical; details: for NADPH Oxidation, GR: Disulfide 0.5 mM, n = 6
T3 sequence (P00390 44-522): T1 sequence (P00390 44-522)
Experimental: as §1

[4] = target: T4, Thioredoxin Reductase + Thioredoxin (Bos taurus, UniProt O97680); test: NADPH oxidation at 340 nm, coupled thioredoxin (TX)/thioredoxin reductase (TXR)/NADPH system; assay type: biochemical, bovine; details: Disulfide 0.5 mM; minimum of triplicate assays
T4 sequence (O97680 1-105): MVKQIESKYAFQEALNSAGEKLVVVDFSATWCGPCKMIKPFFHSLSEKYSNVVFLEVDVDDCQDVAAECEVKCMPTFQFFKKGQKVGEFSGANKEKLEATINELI
Experimental: (§2) Biochemistry 21:6628-6633 (1982).
(§3) Data was then collected and plotted in Microsoft Excel. Error calculations, and graphical representations were performed in Microsoft Excel and Kaleidograph (ver. 3.5). Nonlinear data was graphically rendered using Kaleidograph. ANOVA and other statistical analyses were performed using SAS (ver. 8.2). Unless otherwise noted, significance level was set at 0.05, and error bars represent actual experimental standard deviation.
(§4) It should be noted that for the purposes of FIG. 17 only, thioredoxin is labeled TXR and thioredoxin reductase is labeled TRR.
Table 4, below, illustrates that various Formula (I) compounds (i.e., disulfide-containing compounds) of the present invention can serve as alternate substrate inhibitors for the coupled thioredoxin (TX)/thioredoxin reductase (TXR)/NADPH system as measured by the oxidation of NADPH. In Table 4, the Formula (I) compounds were utilized at a concentration of 0.5 mM.

Thioredoxin Reductase = target: T5, Thioredoxin Reductase (Bos taurus, UniProt O62768); test: NADPH oxidation at 340 nm, thioredoxin reductase only; assay type: biochemical, bovine; details: Disulfide 0.5 mM; minimum of triplicate assays
T5 sequence (O62768 1-499): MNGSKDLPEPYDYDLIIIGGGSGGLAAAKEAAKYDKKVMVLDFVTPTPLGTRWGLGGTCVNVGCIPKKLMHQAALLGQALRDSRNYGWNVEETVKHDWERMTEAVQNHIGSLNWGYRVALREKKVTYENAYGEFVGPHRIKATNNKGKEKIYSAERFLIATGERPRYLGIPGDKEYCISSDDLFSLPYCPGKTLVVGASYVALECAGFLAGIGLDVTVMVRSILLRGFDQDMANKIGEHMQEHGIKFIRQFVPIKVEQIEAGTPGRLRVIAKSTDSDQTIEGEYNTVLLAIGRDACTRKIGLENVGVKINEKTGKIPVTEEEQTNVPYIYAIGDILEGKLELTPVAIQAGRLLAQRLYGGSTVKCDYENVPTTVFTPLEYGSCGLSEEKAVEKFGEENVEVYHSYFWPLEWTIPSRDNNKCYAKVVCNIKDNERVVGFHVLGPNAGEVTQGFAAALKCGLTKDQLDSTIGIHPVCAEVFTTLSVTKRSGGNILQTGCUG
Experimental: as §2, §3, §4

[5] = test system: cellular ribonucleotide reductase in human cancer cells; details: literature; cited from earlier work
[6] = target: T3, glutathione reductase (GR); details: cited from earlier work
brain cancer cells = test: cytotoxicity study in combination with oxaliplatin, brain cancer cells; assay type: cell-based, human; details: oxaliplatin and mesna, observable but not statistically significant
[7] = test system: ovarian cancer cell lines; test: cytotoxicity study in combination with oxaliplatin, ovarian cancer cell lines; assay type: cell-based, human; details: mesna 100 μM in combination with oxaliplatin vs oxaliplatin alone controls
whole cells = test: whole cell mediated disulfide reduction (α-lipoic acid, hydroxyethyldisulfide); assay type: cell-based; details: mesna in combination with cisplatin
[8] = test system: non-small cell lung carcinoma (NSCLC) cell lines; test: cytotoxicity study in combination with chemotherapeutic agents, NSCLC cell lines; assay type: cell-based, human
[9] = literature studies, result in words

CC1=C(/C=C/C(C)=C/C=C/C(C)=C\C(=O)O)C(C)(C)CCC1 [13-cis-retinoic acid]
inhibition of TXR [1, 9]: irreversible inhibition

NC(CSSCCS(=O)(=O)O)C(=O)O (stereo not shown) [BNP7766]
NADPH Oxidation, GR + GSH (GR + GSH): 4.1 ± 1.3 nmol/min/mL | NADPH Oxidation, GR + GRX + GSH [2]: 28.3 ± 2.0 nmol/min/mL | NADPH Oxidation, GR [3]: 0.0 ± 0.01 nmol/min/mL | NADPH Oxidation, Thioredoxin Reductase + Thioredoxin [4]: 14.4 ± 0.2 nmol/min/mL | NADPH Oxidation, Thioredoxin Reductase only (Thioredoxin Reductase): 0.2 ± 0.03 nmol/min/mL

NC(CCSSCCS(=O)(=O)O)C(=O)O (stereo not shown) [BNP7768]
NADPH Oxidation, GR + GSH (GR + GSH): 0.88 ± 0.2 nmol/min/mL | NADPH Oxidation, GR + GRX + GSH [2]: 10.7 ± 0.7 nmol/min/mL | NADPH Oxidation, GR [3]: 0.16 ± 0.96 nmol/min/mL | NADPH Oxidation, Thioredoxin Reductase + Thioredoxin [4]: 8.6 ± 0.06 nmol/min/mL | NADPH Oxidation, Thioredoxin Reductase only (Thioredoxin Reductase): 0.0 ± 0.03 nmol/min/mL

N[C@@H](CCC(=O)N[C@@H](CSSCCS(=O)(=O)O)C(=O)NCC(=O)O)C(=O)O [BNP7772]
NADPH Oxidation, GR + GSH (GR + GSH): 11.3 ± 0.8 nmol/min/mL | NADPH Oxidation, GR + GRX + GSH [2]: 71.0 ± 7.9 nmol/min/mL | NADPH Oxidation, GR [3]: 8.0 ± 0.6 nmol/min/mL | substrate / alternative substrate inhibitor for glutathione reductase ([3]; result in words): functions as an alternative substrate inhibitor | NADPH Oxidation, Thioredoxin Reductase + Thioredoxin [4]: 14.1 ± 0.1 nmol/min/mL | NADPH Oxidation, Thioredoxin Reductase only (Thioredoxin Reductase): 0.3 ± 0.02 nmol/min/mL

NC(CCC(=O)NC(CSSCCS(=O)(=O)O)C(=O)O)C(=O)O (stereo not shown) [BNP7774]
NADPH Oxidation, GR + GSH (GR + GSH): 2.4 ± 0.7 nmol/min/mL | NADPH Oxidation, GR + GRX + GSH [2]: 37.0 ± 2.1 nmol/min/mL | NADPH Oxidation, GR [3]: 0.04 ± 0.12 nmol/min/mL | NADPH Oxidation, Thioredoxin Reductase + Thioredoxin [4]: 9.6 ± 0.2 nmol/min/mL | NADPH Oxidation, Thioredoxin Reductase only (Thioredoxin Reductase): 0.3 ± 0.02 nmol/min/mL

N[C@@H](CSSCCS(=O)(=O)O)C(=O)NCC(=O)O [BNP7776]
NADPH Oxidation, GR + GSH (GR + GSH): 4.1 ± 1.0 nmol/min/mL | NADPH Oxidation, GR + GRX + GSH [2]: 22.0 ± 0.5 nmol/min/mL | NADPH Oxidation, GR [3]: 0.0 ± 0.7 nmol/min/mL | NADPH Oxidation, Thioredoxin Reductase + Thioredoxin [4]: 15.8 ± 0.3 nmol/min/mL | NADPH Oxidation, Thioredoxin Reductase only (Thioredoxin Reductase): 0.2 ± .04 nmol/min/mL

CCOC(=O)NC1=C(N2CC2)C(=O)C(NC(=O)OCC)=C(N2CC2)C1=O [Diaziquone]
inhibition of the TR/TXR system resulting in inhibition of cellular ribonucleotide reductase activity [5]: concentration-dependent inhibition

CS(=O)(=O)OCCCCOS(C)(=O)=O [busulfan]
inhibition of GR [6, 9]: not GR | inhibition of TXR [1, 9]: irreversibly inhibited

N.N.O=C([O-])C1(C(=O)[O-])CCC1.[Pt+2] [carboplatin]
inhibition of GR [6, 9]: could not inhibit | inhibition of TXR [1, 9]: could not inhibit

O=NN(CCCl)C(=O)NCCCl [carmustine]
inhibition of GR [6, 9]: can inhibit | inhibition of TXR [1, 9]: can inhibit

O=C(O)CCCc1ccc(N(CCCl)CCCl)cc1 [chlorambucil]
inhibition of GR [6, 9]: not GR | inhibition of TXR [1, 9]: irreversibly inhibited

N.N.[Cl][Pt][Cl] [cisplatin, cis-diamminedichloroplatinum]
inhibition of GR [6, 9]: not GR | inhibition of TXR [1, 9]: irreversibly inhibited

O=P1(N(CCCl)CCCl)NCCCO1 (stereo not shown) [cyclophosphamide]
inhibition of GR [6, 9]: not GR | inhibition of TXR [1, 9]: irreversibly inhibited

COc1cccc2c1C(=O)c1c(O)c3c(c(O)c1C2=O)C[C@@](O)(C(C)=O)C[C@@H]3O[C@H]1C[C@H](N)[C@H](O)[C@H](C)O1 [daunorubicin]
inhibition of TXR [1]: not inhibitors

COc1cccc2c1C(=O)c1c(O)c3c(c(O)c1C2=O)C[C@@](O)(C(=O)CO)C[C@@H]3O[C@H]1C[C@H](N)[C@H](O)[C@H](C)O1 [doxorubicin]
inhibition of the TR/TXR system resulting in inhibition of cellular ribonucleotide reductase activity [5]: concentration-dependent inhibition | inhibition of TXR [1, 9]: not inhibitors

O=P1(NCCCl)OCCCN1CCCl (stereo not shown) [ifosfamide]
inhibition of TXR [1, 9]: inhibited

N[C@@H](Cc1ccc(N(CCCl)CCCl)cc1)C(=O)O [melphalan]
inhibition of GR [6, 9]: not GR | inhibition of TXR [1, 9]: irreversibly inhibited

O=S(=O)([O-])CCS.[Na+] [mesna, 2-mercapto ethane sulfonate sodium]
oxaliplatin cytotoxicity (brain cancer cells): lesser increase | cytotoxic effect of oxaliplatin [7]: markedly enhanced | reduction of α-lipoic acid (TX/TXR substrate) or hydroxyethyldisulfide (GRX substrate) by whole cells (whole cells): enhanced | cytotoxic effect of oxaliplatin ([8]; mesna 100 μM in combination with oxaliplatin vs oxaliplatin alone controls): markedly enhanced | cytotoxic effect of paclitaxel ([8]; mesna 100 μM in combination with paclitaxel vs paclitaxel alone controls): enhanced

O=C(O)C(=O)O.[NH-][C@@H]1CCCC[C@H]1[NH-].[Pt+2] [oxaliplatin]
inhibition of GR [6]: not GR | inhibition of TXR [1]: irreversibly inhibited

N.N.[Cl][Pt+2][Cl] [transplatin]
inhibition of GR [6]: not GR | inhibition of TXR [1]: irreversibly inhibited

From US9320760B2, “Compositions and methods of use of compounds to increase cancer patient survival time” (BioNumerik Pharmaceuticals, Inc., priority 2008, dated 2016)
